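How tested: cells in 96-well plates exposed to compound for 48 hours at five concentrations. Abbreviation: GI50, concentration required for 50% inhibition of growth.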 Active and inactive are the calls of the source. Rule as the data show it: active = GI50 up to about 1.1 µM and inactive = higher.
What was measured:
Test in all cases: growth of human tumour cells (NCI), 48 h
[1] = tested on: MOLT-4
[2] = tested on: UACC-257
[3] = tested on: SNB-19
[4] = tested on: SN12C
[5] = tested on: NCI-H460
[6] = tested on: SF-539
[7] = tested on: LOX IMVI
[8] = tested on: COLO 205
[9] = tested on: Malme-3M
[10] = tested on: IGROV-1
[11] = tested on: SK-MEL-2
[12] = tested on: TK-10
[13] = tested on: NCI-H23
[14] = tested on: HL-60
[15] = tested on: M14
[16] = tested on: 786-0

Measured: GI50

COC(=O)C1=C(O)C(O)=C(C(=O)OC)CC1
inactive: [1] > 100 µM | [2] > 100 µM | [3] > 100 µM | [4] > 100 µM | [5] > 100 µM | [6] > 100 µM | [7] > 100 µM | [8] > 100 µM | [9] > 100 µM | [10] > 100 µM | [11] > 100 µM | [12] > 100 µM | [13] > 100 µM | [14] > 100 µM | [15] > 100 µM | [16] > 100 µM

N#CC1CC2(C(=O)C1=O)c1ccccc1-c1ccccc12 (stereo not drawn)
inactive: [1] > 100 µM | [2] > 100 µM | [3] > 100 µM | [4] > 100 µM | [5] > 100 µM | [7] > 100 µM | [8] > 100 µM | [9] > 100 µM | [10] > 100 µM | [11] > 100 µM | [12] > 100 µM | [13] > 100 µM | [14] > 100 µM | [15] > 100 µM | [16] > 100 µM

COc1ccc(/C=N/N=C(\N)NO)cc1O
inactive: [1] > 100 µM | [3] > 100 µM | [4] 30.9 µM | [5] 25.5 µM | [6] 31.2 µM | [7] 26.7 µM | [8] 25.8 µM | [9] 16.6 µM | [10] 84.1 µM | [11] 76.4 µM | [13] 31.9 µM | [16] 18.5 µM

COc1ccc(Nc2nc3c(N)cc(C(F)(F)F)cc3nc2-c2ccccc2)cc1
inactive: [1] > 100 µM | [2] > 100 µM | [3] 71.6 µM | [4] > 100 µM | [5] 60.4 µM | [6] > 100 µM | [7] > 100 µM | [8] > 100 µM | [9] 78.3 µM | [10] 52 µM | [11] 89.5 µM | [12] > 100 µM | [13] 69.7 µM | [14] 16.9 µM | [15] 79.6 µM | [16] 35.6 µM

C=CCc1cc(-c2cc(CC=C)c(O)c(CNC)c2)cc(CNC)c1O
inactive: [1] 10.9 µM | [2] 16 µM | [3] 13.3 µM | [4] 17.1 µM | [5] 16.3 µM | [7] 13.3 µM | [8] 18.5 µM | [9] 18.7 µM | [10] 18 µM | [11] 18.6 µM | [12] 17.7 µM | [13] 15.8 µM | [14] 14.9 µM | [15] 15.6 µM | [16] 15.5 µM

Cc1cccc2c1CCC21OC(=O)c2c1ccc1ccccc21 (stereo not drawn)
inactive: [1] 24.3 µM | [2] 25.8 µM | [3] 90.4 µM | [4] > 100 µM | [5] 42.2 µM | [7] 54.8 µM | [8] 47 µM | [9] 20 µM | [10] 55.2 µM | [11] 24.5 µM | [12] 36.1 µM | [13] 32.9 µM | [14] 22.1 µM | [15] 23.7 µM | [16] 83.9 µM

N#CC(C#N)=C1SCC(=O)CS1
inactive: [1] > 100 µM | [2] > 100 µM | [3] > 100 µM | [4] > 100 µM | [5] > 100 µM | [6] > 100 µM | [7] > 100 µM | [8] > 100 µM | [9] > 100 µM | [10] > 100 µM | [12] > 100 µM | [13] > 100 µM | [14] > 100 µM | [15] > 100 µM | [16] > 100 µM

COC(=O)/C(C#N)=C1\CCC(C(=O)OC)N1C (stereo not drawn)
inactive: [1] > 100 µM | [2] > 100 µM | [3] > 100 µM | [4] > 100 µM | [5] > 100 µM | [6] > 100 µM | [8] > 100 µM | [10] > 100 µM | [11] > 100 µM | [12] > 100 µM | [13] > 100 µM | [14] > 100 µM | [15] > 100 µM | [16] > 100 µM

CCOC(=O)C(=C=Cc1cccs1)C(=O)c1ccccc1
inactive: [1] 19.2 µM | [2] 12.9 µM | [4] 15.8 µM | [5] 20.4 µM | [6] 16.5 µM | [7] 12.4 µM | [8] 17.6 µM | [9] 15.7 µM | [10] 17.3 µM | [11] 19 µM | [12] 15 µM | [13] 15.4 µM | [14] 24.6 µM | [15] 15 µM | [16] 16 µM

C=Cc1c(-c2ccccc2)cnc2[nH]c3ccccc3c12
inactive: [1] > 50 µM | [2] > 50 µM | [3] > 50 µM | [4] > 50 µM | [5] > 50 µM | [7] > 50 µM | [8] > 50 µM | [9] > 50 µM | [10] > 50 µM | [11] > 50 µM | [12] > 50 µM | [13] > 50 µM | [14] > 50 µM | [15] > 50 µM | [16] > 50 µM

O=C(NC12CC3CC(CC(F)(C3)C1)C2)c1ccccc1
inactive: [1] > 100 µM | [2] > 100 µM | [3] > 100 µM | [5] > 100 µM | [6] > 100 µM | [7] > 100 µM | [8] > 100 µM | [9] > 100 µM | [10] > 100 µM | [11] > 100 µM | [12] > 100 µM | [13] > 100 µM | [14] > 100 µM | [15] > 100 µM | [16] > 100 µM

C/C(=N/Nc1ccc([N+](=O)[O-])cc1[N+](=O)[O-])C(CC(C(=O)Nc1ccccc1C)/C(C)=N\Nc1ccc([N+](=O)[O-])cc1[N+](=O)[O-])C(=O)Nc1ccccc1C (stereo not drawn)
inactive: [2] 14.4 µM | [3] 14 µM | [4] 6 µM | [5] 12.5 µM | [6] 13 µM | [7] 14.4 µM | [8] 12.8 µM | [9] 22.5 µM | [10] 15.8 µM | [11] 13.3 µM | [12] 17.9 µM | [13] 11.3 µM | [14] 1.19 µM | [15] 18 µM | [16] 17.9 µM

O=C(COC(=O)c1cccc2c(=O)c3ccccc3[nH]c12)Nc1ccc(Cl)cc1
inactive: [1] 26.3 µM | [2] > 100 µM | [3] 35 µM | [4] > 100 µM | [5] 63.4 µM | [6] 26.1 µM | [7] 23.2 µM | [8] > 100 µM | [9] > 100 µM | [10] 70.6 µM | [12] 13.1 µM | [13] 18.8 µM | [14] 11.6 µM | [15] 78.9 µM | [16] 23.1 µM
